In patent US9486506B2 (Novo Nordisk A/S, priority 2011, dated 2016):
Numbered stars: 1 amine (or outer) side, 2 acyl side, 3 side chain; on linkers, the order of the positions; unused ones are H or OH. Side chains are listed from the residue outwards. Peptide text beside a SMILES is read from it. * marks the point of attachment. C20 diacid = O=C(O)CCCCCCCCCCCCCCCCCCC(=O)*; C18 diacid = O=C(O)CCCCCCCCCCCCCCCCC(=O)*; γGlu = O=C(O)[C@H](CCC(=O)[*:2])N[*:1]; AEEA = NCCOCCOCC(=O)O

Biological target: T1, glucagon receptor (Homo sapiens, UniProt P47871)
T1 construct: expressed in transfected cells
Experiment: Assay (I) Glucagon activity (cAMP biosensor, FLIPR)
Type: cell-based
Protocol: The cells (14000 per well) were incubated (37° C., 5% CO2) overnight in 384-well plates. Next day the cells were loaded with a calcium responsive dye that only distributed into the cytoplasm. Probenecid, an inhibitor of the organic anion transporter, was added to prevent the dye from leaving the cell. A PDE inhibitor was added to prevent formatted cAMP from being degraded. The plates were placed into a […] and the glucagon analogues were added. End point data were collected after 6 minutes. An increase in intracellular cAMP was proportional to an increased in calcium concentrations in the cytoplasm. When calcium was bound the dry a fluorescence signal was generated. EC50-values were calculated in Prism5.

T1 sequence (P47871 26-477): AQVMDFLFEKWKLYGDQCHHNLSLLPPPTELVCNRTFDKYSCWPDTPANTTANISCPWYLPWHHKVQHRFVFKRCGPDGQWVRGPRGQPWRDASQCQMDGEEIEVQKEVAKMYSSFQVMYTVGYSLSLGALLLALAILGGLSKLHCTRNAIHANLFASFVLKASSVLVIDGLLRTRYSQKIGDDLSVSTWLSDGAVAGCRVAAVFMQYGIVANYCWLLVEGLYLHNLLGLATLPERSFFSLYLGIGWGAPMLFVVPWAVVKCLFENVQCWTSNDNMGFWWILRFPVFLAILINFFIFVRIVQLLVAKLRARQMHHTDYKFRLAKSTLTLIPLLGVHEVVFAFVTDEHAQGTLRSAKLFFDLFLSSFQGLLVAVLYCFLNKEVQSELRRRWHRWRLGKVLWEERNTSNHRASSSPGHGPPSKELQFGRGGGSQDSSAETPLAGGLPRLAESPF

Row | Structure (SMILES) | EC50 [nM]
1 | CC[C@H](C)[C@H](NC(=O)[C@H](CC(C)C)NC(=O)[C@H](CC(C)C)NC(=O)[C@H](Cc1c[nH]c2ccccc12)NC(=O)[C@H](CCCCNC(=O)CC[C@H](NC(=O)CC[C@H](NC(=O)COCCOCCNC(=O)COCCOCCNC(=O)CC[C@H](NC(=O)CCCCCCCCCCCCCCCCC(=O)O)C(=O)O)C(=O)O)C(=O)O)NC(=O)[C@@H](NC(=O)[C@H](Cc1ccccc1)NC(=O)[C@H](CC(=O)O)NC(=O)[C@H](CCC(N)=O)NC(=O)[C@H](C)NC(=O)[C@H](CCCNC(=N)N)NC(=O)[C@H](CCCNC(=N)N)NC(=O)[C@H](CC(C)C)NC(=O)[C@H](CC(=O)O)NC(=O)[C@H](CC(C)C)NC(=O)[C@H](Cc1ccc(O)cc1)NC(=O)[C@H](CCCNC(=N)N)NC(=O)[C@H](CO)NC(=O)[C@H](Cc1ccc(O)cc1)NC(=O)[C@H](CC(=O)O)NC(=O)[C@H](CO)NC(=O)[C@@H](NC(=O)[C@H](Cc1ccccc1)NC(=O)[C@@H](NC(=O)CNC(=O)[C@H](CCC(N)=O)NC(=O)[C@H](CO)NC(=O)[C@@H](N)Cc1c[nH]cn1)[C@@H](C)O)[C@@H](C)O)C(C)C)C(=O)N[C@H](C(=O)O)[C@@H](C)O [Example 18, N^ε24-[(4S)-4-carboxy-4-[[(4S)-4-carboxy-4-[[2-[2-[2-[[2-[2-[2-[[(4S)-4-carboxy-4-(17-carboxyheptadecanoylamino)butanoyl]amino]ethoxy]ethoxy]acetyl]amino]ethoxy]ethoxy]acetyl]amino]butanoyl]amino]butanoyl]-[Arg^12,Leu^16,Lys^24,Leu^27,Ile^28]-Glucagon] (H-HSQGTFTSDYSRYLDLRRAQDFVK([γGlu-γGlu-AEEA-AEEA-γGlu-C18 diacid])WLLIT-OH) | 1.67
2 | CC(C)C[C@H](NC(=O)[C@H](CC(=O)O)NC(=O)[C@H](CC(C)C)NC(=O)[C@H](Cc1ccc(O)cc1)NC(=O)[C@H](CCCNC(=N)N)NC(=O)[C@H](CO)NC(=O)[C@H](Cc1ccc(O)cc1)NC(=O)[C@H](CC(=O)O)NC(=O)[C@H](CO)NC(=O)[C@@H](NC(=O)[C@H](Cc1ccccc1)NC(=O)[C@@H](NC(=O)CNC(=O)[C@H](CCC(N)=O)NC(=O)[C@H](CO)NC(=O)[C@@H](N)Cc1c[nH]cn1)[C@@H](C)O)[C@@H](C)O)C(=O)N[C@@H](CCCNC(=N)N)C(=O)N[C@@H](CCCNC(=N)N)C(=O)N[C@@H](C)C(=O)N[C@@H](CCC(N)=O)C(=O)N[C@@H](CC(=O)O)C(=O)N[C@@H](Cc1ccccc1)C(=O)N[C@H](C(=O)N[C@@H](CCCCNC(=O)CC[C@H](NC(=O)CC[C@H](NC(=O)COCCOCCNC(=O)COCCOCCNC(=O)CC[C@H](NC(=O)CCCCCCCCCCCCCCCCCCC(=O)O)C(=O)O)C(=O)O)C(=O)O)C(=O)N[C@@H](Cc1c[nH]c2ccccc12)C(=O)N[C@@H](CC(C)C)C(=O)N[C@@H](CC(C)C)C(=O)N[C@@H](CO)C(=O)N[C@H](C(=O)O)[C@@H](C)O)C(C)C [Example 26, N^ε24-[(4S)-4-carboxy-4-[[(4S)-4-carboxy-4-[[2-[2-[2-[[2-[2-[2-[[(4S)-4-carboxy-4-(19-carboxynonadecanoylamino)butanoyl]amino]ethoxy]ethoxy]acetyl]amino]ethoxy]ethoxy]acetyl]amino]butanoyl]amino]butanoyl]-[Arg^12,Leu^16,Lys^24,Leu^27,Ser^28]-Glucagon] (H-HSQGTFTSDYSRYLDLRRAQDFVK([γGlu-γGlu-AEEA-AEEA-γGlu-C20 diacid])WLLST-OH) | 1.07
3 | CC(C)C[C@H](NC(=O)[C@H](CC(=O)O)NC(=O)[C@H](CC(C)C)NC(=O)[C@H](Cc1ccc(O)cc1)NC(=O)[C@H](CCCNC(=N)N)NC(=O)[C@H](CO)NC(=O)[C@H](Cc1ccc(O)cc1)NC(=O)[C@H](CC(=O)O)NC(=O)[C@H](CO)NC(=O)[C@@H](NC(=O)[C@H](Cc1ccccc1)NC(=O)[C@@H](NC(=O)CNC(=O)[C@H](CCC(N)=O)NC(=O)[C@H](CO)NC(=O)[C@@H](N)Cc1c[nH]cn1)[C@@H](C)O)[C@@H](C)O)C(=O)N[C@@H](CCCNC(=N)N)C(=O)N[C@@H](CCCNC(=N)N)C(=O)N[C@@H](C)C(=O)N[C@@H](CCC(N)=O)C(=O)N[C@@H](CC(=O)O)C(=O)N[C@@H](Cc1ccccc1)C(=O)N[C@H](C(=O)N[C@@H](CCCCNC(=O)CC[C@H](NC(=O)COCCOCCNC(=O)COCCOCCNC(=O)CC[C@H](NC(=O)CC[C@H](NC(=O)CCCCCCCCCCCCCCCCC(=O)O)C(=O)O)C(=O)O)C(=O)O)C(=O)N[C@@H](Cc1c[nH]c2ccccc12)C(=O)N[C@@H](CC(C)C)C(=O)N[C@@H](CC(C)C)C(=O)N[C@@H](CO)C(=O)N[C@H](C(=O)O)[C@@H](C)O)C(C)C [Example 27, N^ε24-[(4S)-4-carboxy-4-[[2-[2-[2-[[2-[2-[2-[[(4S)-4-carboxy-4-[[(4S)-4-carboxy-4-(17-carboxyheptadecanoylamino)butanoyl]amino]butanoyl]amino]ethoxy]ethoxy]acetyl]amino]ethoxy]ethoxy]acetyl]amino]butanoyl]-[Arg^12,Leu^16,Lys^24,Leu^27,Ser^28]-Glucagon] (H-HSQGTFTSDYSRYLDLRRAQDFVK([γGlu-AEEA-AEEA-γGlu-γGlu-C18 diacid])WLLST-OH) | 0.91
4 | CC(C)C[C@H](NC(=O)[C@H](CC(=O)O)NC(=O)[C@H](CC(C)C)NC(=O)[C@H](Cc1ccc(O)cc1)NC(=O)[C@H](CCCNC(=N)N)NC(=O)[C@H](CO)NC(=O)[C@H](Cc1ccc(O)cc1)NC(=O)[C@H](CC(=O)O)NC(=O)[C@H](CO)NC(=O)[C@@H](NC(=O)[C@H](Cc1ccccc1)NC(=O)[C@@H](NC(=O)CNC(=O)[C@H](CCC(N)=O)NC(=O)[C@H](CO)NC(=O)[C@@H](N)Cc1c[nH]cn1)[C@@H](C)O)[C@@H](C)O)C(=O)N[C@@H](CCCNC(=N)N)C(=O)N[C@@H](CCCNC(=N)N)C(=O)N[C@@H](C)C(=O)N[C@@H](CCC(N)=O)C(=O)N[C@@H](CC(=O)O)C(=O)N[C@@H](Cc1ccccc1)C(=O)N[C@H](C(=O)N[C@@H](CCCCNC(=O)COCCOCCNC(=O)COCCOCCNC(=O)CC[C@H](NC(=O)CC[C@H](NC(=O)CC[C@H](NC(=O)CCCCCCCCCCCCCCCCC(=O)O)C(=O)O)C(=O)O)C(=O)O)C(=O)N[C@@H](Cc1c[nH]c2ccccc12)C(=O)N[C@@H](CC(C)C)C(=O)N[C@@H](CC(C)C)C(=O)N[C@@H](CO)C(=O)N[C@H](C(=O)O)[C@@H](C)O)C(C)C [Example 28, N^ε24-[2-[2-[2-[[2-[2-[2-[[(4S)-4-carboxy-4-[[(4S)-4-carboxy-4-[[(4S)-4-carboxy-4-(17-carboxyheptadecanoylamino)butanoyl]amino]butanoyl]amino]butanoyl]amino]ethoxy]ethoxy]acetyl]amino]ethoxy]ethoxy]acetyl]-[Arg^12,Leu^16,Lys^24,Leu^27,Ser^28]-Glucagon] (H-HSQGTFTSDYSRYLDLRRAQDFVK([AEEA-AEEA-γGlu-γGlu-γGlu-C18 diacid])WLLST-OH) | 0.1
